The text below walks through data of patent US7951962B2, “Organic semiconductor compound, organic semiconductor thin film, organic semiconductor coating liquid, organic thin film transistor, methods for producing bis(benzo[4,5] thieno)[2,3-B:3′2′-E][1,4]dithin and bis(benzo [4,5]thieno)[2,3-B:2′3′-E][1,4]dithiin” (Seiko Epson Corporation, priority 2006, dated 2011).

One data set is described as follows: Solvent solubility. The class given is physicochemical. The source says:
The solvent for dissolving the organic semiconductor compound material according to the embodiment may be a hydrocarbon, an alcohol, an ether, an ester, a halogen, a ketone, […], the BTX, a non-proton polar solvent or a mixture solvent thereof. The hydrocarbon may be hexane, heptane, octane or cyclohexane, for example. The alcohol may be methanol, ethanol, (iso-)propanol or butanol. The ether may be diethyl ether, tetrahydrofuran or dioxane and the ester may be ethyl acetate or butyl acetate. The halogen may be dichloromethane or chloroform and the ketone may be acetone or methyl ethyl ketone. The nitrile may be acetonitrile or methyl nitrile. The BTX is a mixture of benzene, toluene and xylene. The non-proton polar solvent may be dimethylsulfoxide (DMSO), dimethylformamide (DMF) or hexamethylphosphoramide (HMPA).
Based on logarithmic plotting in the graph, an ON/OFF ratio of the device was approximately […].

As a reminder, the melting point is the temperature of the solid-liquid transition.

In turn, `c1ccc2c3c(sc2c1)Sc1c(sc2ccccc12)S3` [bis(benzo[4,5]thieno)[2,3-b: 2′3′-e][1,4]dithiin] gave a melting point of 207 to 208.3 °C.

Take `c1ccc2c3c(sc2c1)Sc1sc2ccccc2c1S3` [bis(benzo[4,5]thieno)[2,3-b: 3′2′-e][1,4]dithiin]: in “Solvent solubility” (the above-described solvent (hydrocarbon, alcohol, ether, ester, halogen, ketone, nitrile, BTX, non-proton polar solvent)), the solubility in solvent entry is “soluble in the above-described solvent”. The “solubility compared with known compounds” value in the data set “Solvent solubility” (versus well-known low-molecular organic semiconductor compounds) is reported as “higher solubility than well-known low-molecular organic semiconductor compounds”.
